Our source for the IC50 values is patent US20100292205A1, “Pyrimidone Compounds As GSK-3 Inhibitors” (PFIZER INC., priority 2006, published 2010).

SMILES strings stand for the structures.

The IC50 is the concentration that inhibits the measured activity by half.

For this test, the target named is T1, Recombinant human GSK3β (Homo sapiens, UniProt P49841).
T1 construct: His-tag; made in house; host or cells: Sf9 insect cells / baculovirus
T1 sequence (P49841 whole entry): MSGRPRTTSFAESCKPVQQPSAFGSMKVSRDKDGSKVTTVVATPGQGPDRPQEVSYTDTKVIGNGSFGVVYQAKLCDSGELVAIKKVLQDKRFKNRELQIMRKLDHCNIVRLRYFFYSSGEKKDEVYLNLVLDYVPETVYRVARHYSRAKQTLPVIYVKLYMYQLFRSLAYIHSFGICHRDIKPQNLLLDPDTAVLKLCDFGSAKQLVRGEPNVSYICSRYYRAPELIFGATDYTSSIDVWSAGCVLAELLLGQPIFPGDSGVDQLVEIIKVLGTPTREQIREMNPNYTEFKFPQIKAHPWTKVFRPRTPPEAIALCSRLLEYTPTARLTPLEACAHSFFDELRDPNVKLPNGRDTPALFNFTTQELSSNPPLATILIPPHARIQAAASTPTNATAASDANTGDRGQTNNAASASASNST
As to the kind of experiment: GSK-3β (Glycogen Synthase Kinase) cell free enzyme assay. The conditions noted are these: cell free enzyme assay; Examples 62-155. It is filed as biochemical. An outline of the steps: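 Recombinant human GSK3β, expressed in SF9/baculovirus cells and His-tag purified on Ni-NTA Superflow, was preincubated with test agent for 30 minutes at room temperature. Substrate mix was then added to start the reaction in 8 mM MOPS (pH 7.0), 10 mM magnesium acetate, 0.2 mM EDTA, 1 mM DTT, 2 uM cold ATP, 0.025 uCi/well [33P]ATP (120 uL) and 1.0 uM biotinylated peptide. Reactions ran at RT for 60 min.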
On to `CN(c1nc(-c2ccncc2F)cc(=O)n1C)[C@H]1[C@@H]2CN(C(=O)c3ccc(F)c(Cl)c3)C[C@@H]21` [Example 124, 2-{[(1R,5S,6s)-3-(3-Chloro-4-fluorobenzoyl)-3-azabicyclo[3.1.0]hex-6-yl](methyl)amino}-6-(3-fluoropyridin-4-yl)-3-methylpyrimidin-4(3H)-one], for which the IC50 was determined as 4.58 nM.
For `CN(c1nc(-c2ccncc2F)cc(=O)n1C)[C@H]1[C@@H]2CN(C(=O)c3cccc(C(F)(F)F)c3)C[C@@H]21` [Example 125, 6-(3-Fluoropyridin-4-yl)-3-methyl-2-(methyl{(1R,5S,6s)-3-[3-(trifluoromethyl)benzoyl]-3-azabicyclo[3.1.0]hex-6-yl}amino)pyrimidin-4(3H)-one], the IC50 amounted to 2.11 nM.
Consider `CN(c1nc(-c2ccncc2F)cc(=O)n1C)[C@H]1[C@@H]2CN(C(=O)c3ccc(Cl)nc3)C[C@@H]21` [Example 126, 2-[{(1R,5S,6s)-3-[(6-Chloropyridin-3-yl)carbonyl]-3-azabicyclo[3.1.0]hex-6-yl}(methyl)amino]-6-(3-fluoropyridin-4-yl)-3-methylpyrimidin-4(3H)-one], for which the IC50 was 6.98 nM.
Turning to `CCC(CC)C(=O)N1C[C@@H]2[C@H](C1)[C@H]2N(C)c1nc(-c2ccncc2F)cc(=O)n1C` [Example 127, 2-{[(1R,5S,6s)-3-(2-Ethylbutanoyl)-3-azabicyclo[3.1.0]hex-6-yl](methyl)amino}-6-(3-fluoropyridin-4-yl)-3-methylpyrimidin-4(3H)-one], the IC50 was found to be 4.41 nM.
Take `CCCCC(=O)N1C[C@@H]2[C@H](C1)[C@H]2N(C)c1nc(-c2ccncc2F)cc(=O)n1C` [Example 128, 6-(3-Fluoropyridin-4-yl)-3-methyl-2-{methyl[(1R,5S,6s)-3-pentanoyl-3-azabicyclo[3.1.0]hex-6-yl]amino}pyrimidin-4(3H)-one]: the IC50 was determined as 16.4 nM.
In the case of `COC(=O)CCC(=O)N1C[C@@H]2[C@H](C1)[C@H]2N(C)c1nc(-c2ccncc2F)cc(=O)n1C` [Example 129, Methyl 4-[(1R,5S,6s)-6-{[4-(3-fluoropyridin-4-yl)-1-methyl-6-oxo-1,6-dihydropyrimidin-2-yl](methyl)amino}-3-azabicyclo[3.1.0]hex-3-yl]-4-oxobutanoate], the IC50 was found to be 84.4 nM.
Turning to `CN(c1nc(-c2ccncc2F)cc(=O)n1C)[C@H]1[C@@H]2CN(C(=O)c3cc(F)ccc3F)C[C@@H]21` [Example 130, 2-{[(1R,5S,6s)-3-(2,5-Difluorobenzoyl)-3-azabicyclo[3.1.0]hex-6-yl](methyl)amino}-6-(3-fluoropyridin-4-yl)-3-methylpyrimidin-4(3H)-one], the IC50 amounted to 1.69 nM.
Under `CN(c1nc(-c2ccncc2F)cc(=O)n1C)[C@H]1[C@@H]2CN(C(=O)CC(C)(C)C)C[C@@H]21` [Example 131, 2-{[(1R,5S,6s)-3-(3,3-Dimethylbutanoyl)-3-azabicyclo[3.1.0]hex-6-yl](methyl)amino}-6-(3-fluoropyridin-4-yl)-3-methylpyrimidin-4(3H)-one] stands 1.57 nM.
On to `Cc1cccc(C(=O)N2C[C@@H]3[C@H](C2)[C@H]3N(C)c2nc(-c3ccncc3F)cc(=O)n2C)c1` [Example 132, 6-(3-Fluoropyridin-4-yl)-3-methyl-2-{methyl[(1R,5S,6s)-3-(3-methylbenzoyl)-3-azabicyclo[3.1.0]hex-6-yl]amino}pyrimidin-4(3H)-one], for which the 50% inhibitory concentration (IC50) turned out to be 1.05 nM.
Under `Cc1ccc(C(=O)N2C[C@@H]3[C@H](C2)[C@H]3N(C)c2nc(-c3ccncc3F)cc(=O)n2C)cc1F` [Example 133, 2-{[(1R,5S,6s)-3-(3-Fluoro-4-methylbenzoyl)-3-azabicyclo[3.1.0]hex-6-yl](methyl)amino}-6-(3-fluoropyridin-4-yl)-3-methylpyrimidin-4(3H)-one] stands 2.91 nM; under `CN(c1nc(-c2ccncc2F)cc(=O)n1C)C1[C@H]2CN(C(=O)C34CC[C@@](C)(C(=O)O3)C4(C)C)C[C@@H]12` (stereo partly drawn) [Example 134, 6-(3-Fluoropyridin-4-yl)-3-methyl-2-{methyl[(1R,5S,6R)-3-{[(1S,4R)-4,7,7-trimethyl-3-oxo-2-oxabicyclo[2.2.1]hept-1-yl]carbonyl}-3-azabicyclo[3.1.0]hex-6-yl]amino}pyrimidin-4(3H)-one], 65.7 nM; under `CCC(=O)N1C[C@@H]2[C@H](C1)[C@H]2N(C)c1nc(-c2ccncc2F)cc(=O)n1C` [Example 135, 6-(3-Fluoropyridin-4-yl)-3-methyl-2-{methyl[(1R,5S,6s)-3-propionyl-3-azabicyclo[3.1.0]hex-6-yl]amino}pyrimidin-4(3H)-one], 5.46 nM.
In the case of `CN(c1nc(-c2ccncc2F)cc(=O)n1C)[C@H]1[C@@H]2CN(C(=O)c3ccc(C#N)cc3)C[C@@H]21` [Example 136, 4-{[(1R,5S,6s)-6-{[4-(3-Fluoropyridin-4-yl)-1-methyl-6-oxo-1,6-dihydropyrimidin-2-yl](methyl)amino}-3-azabicyclo[3.1.0]hex-3-yl]carbonyl}benzonitrile], the IC50 is 42.6 nM.
Turning to `CN(c1nc(-c2ccncc2F)cc(=O)n1C)[C@H]1[C@@H]2CN(C(=O)c3cccc(F)c3F)C[C@@H]21` [Example 137, 2-{[(1R,5S,6s)-3-(2,3-Difluorobenzoyl)-3-azabicyclo[3.1.0]hex-6-yl](methyl)amino}-6-(3-fluoropyridin-4-yl)-3-methylpyrimidin-4(3H)-one], the IC50 worked out at 3.29 nM.
Turning to `CCCC(=O)N1C[C@@H]2[C@H](C1)[C@H]2N(C)c1nc(-c2ccncc2F)cc(=O)n1C` [Example 138, 2-{[(1R,5S,6s)-3-Butyryl-3-azabicyclo[3.1.0]hex-6-yl](methyl)amino}-6-(3-fluoropyridin-4-yl)-3-methylpyrimidin-4(3H)-one], the IC50 was found to be 13.8 nM.
Consider `CN(c1nc(-c2ccncc2F)cc(=O)n1C)[C@H]1[C@@H]2CN(C(=O)c3ccc(F)cc3)C[C@@H]21` [Example 139, 2-{[(1R,5S,6s)-3-(4-Fluorobenzoyl)-3-azabicyclo[3.1.0]hex-6-yl](methyl)amino}-6-(3-fluoropyridin-4-yl)-3-methylpyrimidin-4(3H)-one], for which the IC50 was determined as 5.67 nM.
`CN(c1nc(-c2ccncc2F)cc(=O)n1C)[C@H]1[C@@H]2CN(C(=O)C3CC=CCC3)C[C@@H]21` (stereo partly drawn) [Example 140, 2-{[(1R,5S,6s)-3-(Cyclohex-3-en-1-ylcarbonyl)-3-azabicyclo[3.1.0]hex-6-yl](methyl)amino}-6-(3-fluoropyridin-4-yl)-3-methylpyrimidin-4(3H)-one]: the IC50 worked out at 8.72 nM.
As to `CN(c1nc(-c2ccncc2F)cc(=O)n1C)[C@H]1[C@@H]2CN(C(=O)c3cc(Cl)sc3Cl)C[C@@H]21` [Example 141, 2-[{(1R,5S,6s)-3-[(2,5-Dichloro-3-thienyl)carbonyl]-3-azabicyclo[3.1.0]hex-6-yl}(methyl)amino]-6-(3-fluoropyridin-4-yl)-3-methylpyrimidin-4(3H)-one], the IC50 is 1.04 nM.
In the case of `Cc1ccc(C(=O)N2C[C@@H]3[C@H](C2)[C@H]3N(C)c2nc(-c3ccncc3F)cc(=O)n2C)cc1` [Example 142, 6-(3-Fluoropyridin-4-yl)-3-methyl-2-{methyl[(1R,5S,6s)-3-(4-methylbenzoyl)-3-azabicyclo[3.1.0]hex-6-yl]amino}pyrimidin-4(3H)-one], the IC50 worked out at 3.51 nM.
With `COC(=O)CCCC(=O)N1C[C@@H]2[C@H](C1)[C@H]2N(C)c1nc(-c2ccncc2F)cc(=O)n1C` [Example 143, Methyl 5-[(1R,5S,6s)-6-{[4-(3-fluoropyridin-4-yl)-1-methyl-6-oxo-1,6-dihydropyrimidin-2-yl](methyl)amino}-3-azabicyclo[3.1.0]hex-3-yl]-5-oxopentanoate], the IC50 stood at 57.4 nM.
As to `CN(c1nc(-c2ccncc2F)cc(=O)n1C)[C@H]1[C@@H]2CN(C(=O)c3cc(F)cc(F)c3)C[C@@H]21` [Example 144, 2-{[(1R,5S,6s)-3-(3,5-Difluorobenzoyl)-3-azabicyclo[3.1.0]hex-6-yl](methyl)amino}-6-(3-fluoropyridin-4-yl)-3-methylpyrimidin-4(3H)-one], the IC50 is 4.09 nM.
In the case of `CC[C@@H](Oc1ccccc1)C(=O)N1C[C@@H]2[C@H](C1)[C@H]2N(C)c1nc(-c2ccncc2F)cc(=O)n1C` [Example 145, 6-(3-Fluoropyridin-4-yl)-3-methyl-2-{methyl[(1R,5S,6s)-3-(2-phenoxybutanoyl)-3-azabicyclo[3.1.0]hex-6-yl]amino}pyrimidin-4(3H)-one], the 50% inhibitory concentration (IC50) worked out at 13.2 nM.
As to `CN(c1nc(-c2ccncc2F)cc(=O)n1C)[C@H]1[C@@H]2CN(C(=O)Cc3cccs3)C[C@@H]21` [Example 146, 6-(3-Fluoropyridin-4-yl)-3-methyl-2-{methyl[(1R,5S,6s)-3-(2-thienylacetyl)-3-azabicyclo[3.1.0]hex-6-yl]amino}pyrimidin-4(3H)-one], the IC50 was found to be 6.16 nM.
`Cc1cc(C(=O)N2C[C@@H]3[C@H](C2)[C@H]3N(C)c2nc(-c3ccncc3F)cc(=O)n2C)c(C)o1` [Example 147, 2-{[(1R,5S,6s)-3-(2,5-Dimethyl-3-furoyl)-3-azabicyclo[3.1.0]hex-6-yl](methyl)amino}-6-(3-fluoropyridin-4-yl)-3-methylpyrimidin-4(3H)-one]: the IC50 is 3.7 nM.
The result for `CN(c1nc(-c2ccncc2F)cc(=O)n1C)[C@H]1[C@@H]2CN(C(=O)c3ccncc3Cl)C[C@@H]21` [Example 148, 2-{[(1R,5S,6s)-3-(3-Chloroisonicotinoyl)-3-azabicyclo[3.1.0]hex-6-yl](methyl)amino}-6-(3-fluoropyridin-4-yl)-3-methylpyrimidin-4(3H)-one] reads 36.1 nM; that for `CN(c1nc(-c2ccncc2F)cc(=O)n1C)[C@H]1[C@@H]2CN(C(=O)c3c(Cl)cccc3Cl)C[C@@H]21` [Example 149, 2-{[(1R,5S,6s)-3-(2,6-Dichlorobenzoyl)-3-azabicyclo[3.1.0]hex-6-yl](methyl)amino}-6-(3-fluoropyridin-4-yl)-3-methylpyrimidin-4(3H)-one], 3.81 nM.
